Reference: patent US20250057963A1, “DISCOVERY OF PIPERLONGUMINE AS A NOVEL E3 LIGASE LIGAND” (University of Florida Research Foundation, Incorporated, priority 2021, published 2025)

Molecular target: CDK9 (Homo sapiens, UniProt P50750)
Assay: CDK9 degradation in 293T and K562 cells (immunoblot)
Assay type: cell-based
Design: endogenous in cells; host or cells: MOLT4, 293T, K562, NCI-H1299, LNCaP
Protocol: Human T-ALL MOLT4 (Cat. No. CRL-1582), K562 (Cat. No. CCL-243), NCI-H1299 (Cat. No. CRL-5803), NCI-H2228 (Cat. No. CRL-5935), LNCaP (Cat. No. CRL-1740), 22RV1 (Cat. No. CRL-2505), PC3 (Cat. No. CRL-1435), DU145 (Cat. No. HTB-81), and epithelial kidney HEK 293T (293T, Cat. No. ACS-4500) cell lines were recently purchased from American Type Culture Collection (ATCC, Manassas, VA, USA). MOLT4, K562, NCI—H-1299, NCI-H2228, LNCap, and 22RV 1 cell lines were cultured in RPMI 1640 medium (Cat No. 22400-089, Thermo Fisher Scientific, Waltham, MA, USA) supplemented with 10% (v/v) heat-inactivated fetal bovine serum (FBS, Cat. No. S11150H, Atlanta Biologicals, Flowery Branch, GA, USA), 100 U/mL penicillin and 100 pig/mL streptomycin (Pen-Strep, Cat. No. 15140122, Thermo Fisher Scientific). PC3 cells were cultured in complete F—12K medium (Kaighn's modification of Ham's F-12 medium, Cat. No. 30-2004, ATCC) supplemented with 10% (v/v) heat-inactivated FBS, 100 U/mL penicillin, and 100 μg/mL streptomycin. DU145 cells were cultured in complete Eagle's Minimum Essential Medium (EMEM, Cat. No. 30-2003, ATCC) supplemented with 10% (v/v) heat-inactivated FBS, 100 U/mL penicillin, and 100 μg/mL streptomycin. 293T cells were cultured in complete Dulbecco's modified Eagle medium (DMEM, Cat. No. 12430054, Thermo Fisher Scientific) with 10% (v/v) heat-inactivated FBS, 100 U/mL penicillin, and 100 μg/mL streptomycin. All the cell lines were maintained in a humidified incubator at 37° C. and 5% CO2.
Cells were collected and lysed in RIPA lysis buffer (Cat. #BP-115DG, Boston Bio Products, Ashland, MA, USA) supplemented with protease and phosphatase inhibitor cocktails (Cat. #PPC1010, Sigma-Aldrich, St. Louis, MO, USA). Protein samples were made and immunoblotting was performed as described previously (Khan et al., 2019; Lv et al., 2021). […]
Immunoblot data were quantified using the ImageJ (v 1.53a) software from NIH. […]

CDK9, sequence (P50750 whole entry): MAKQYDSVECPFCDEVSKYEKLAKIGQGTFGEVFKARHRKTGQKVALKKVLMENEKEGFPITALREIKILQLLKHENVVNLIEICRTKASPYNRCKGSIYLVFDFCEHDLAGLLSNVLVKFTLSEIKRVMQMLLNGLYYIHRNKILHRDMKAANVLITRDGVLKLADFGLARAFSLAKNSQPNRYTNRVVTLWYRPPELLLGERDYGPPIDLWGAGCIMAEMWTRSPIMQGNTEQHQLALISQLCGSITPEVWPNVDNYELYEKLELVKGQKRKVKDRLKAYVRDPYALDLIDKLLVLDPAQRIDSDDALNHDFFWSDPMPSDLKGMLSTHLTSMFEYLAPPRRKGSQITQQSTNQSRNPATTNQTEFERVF

## COc1cc(/C=C/C(=O)N2CCC=CC2=O)cc(OC)c1OCCN1CCN(C(=O)CN2CCC(C(=O)Nc3ncc(SCc4ncc(C(C)(C)C)o4)s3)CC2)CC1 [compound 955, (E)-N-(5-(((5-(tert-butyl)oxazol-2-yl)methyl)thio)thiazol-2-yl)-1-(2-(4-(2-(2,6-dimethoxy-4-(3-oxo-3-(6-oxo-3,6-dihydropyridin-1(2H)-yl)prop-1-en-1-yl)phenoxy)ethyl)piperazin-1-yl)-2-oxoethyl)piperidine-4-carboxamide]
293T and K562 cells, MG132, bortezomib, MLN4924 pre-treatment
  dependence of 955-induced CDK9 degradation on the UPS: UPS dependent manner
293T cells, 0.1 μM or 1 μM 955
  CDK9 degradation in 293T cells: time and dose dependent manner
K562 cells, 0.1 μM 955
  CDK9 degradation in K562 cells: time and dose dependent manner
